In publication PMC5765142, “New anti-inflammatory guaianes from the Atlantic hydrotherm-derived fungus Graphostroma sp. MCCC 3A00421” (Scientific Reports, 2018):
Read-outs that look alike come from different tables or passages of the source.

How the values were obtained:
Type in all cases: cell-based
[1] = test system: RAW 264.7 macrophages; assay: Cytotoxicity (CC50) in RAW 264.7 macrophages
Protocol: (§1) This experiment was conducted according the reported procedure.

[2] = test system: LPS-induced nitric oxide (NO) production in RAW264.7 macrophages; assay: Inhibition of LPS-induced NO production in RAW264.7 macrophages (anti-inflammatory assay); details: LPS-stimulated, read-out: IC50 (μM), anti-inflammatory activity against LPS-stimulated NO production
Protocol: All isolates were evaluated for their anti-inflammatory activities against LPS-induced NO production in RAW264.7 macrophages (Table 3). […] This experiment was conducted according the reported procedure.

[3] = Cytotoxicity (CC50) in RAW 264.7 macrophages; details: mouse
Protocol: as §1

[4] = Mus musculus, RAW264.7, RAW 264.7 macrophages

IC50 ([2]; RAW 264.7 macrophages) [µM] | IC50 [2, 4] [µM] | Structure (SMILES) | CC50 [1] [µM] | CC50 [3] [µM]
310 | – | C=C(C)C1CCC(C)(O)C2CC(O)C(C)C2C1 [Compound 1, (1R,3R,4R,5S,7R,10R)-11(13)-en-3,10-dihydroxyguaiene] | – | > 50
– | 103 | C=C(C)C1CCC(C)(O)C2CCC(C)C2C1 [Compound 2, (1R,4S,5S,7R,10R)-11(13)-en-10-hydroxyguaiene] | – | > 50
113 | – | C=C(C)C1CCC(C)(O)C2CC(O)C(C)C2C1 [Compound 3, (1R,3S,4R,5R,7R,10R)-11(13)-en-3,10-dihydroxyguaiene] | > 50 | –
– | 72.9 | C=C(C)[C@@H]1CC[C@@](C)(O)[C@@H]2CC(=O)[C@H](C)[C@H]2C1 [Compound 4, (1R,4S,5S,7R,10R)-3-oxo-11(13)-en-10-hydroxyguaiene] | – | > 50
– | 138 | C=C(C)C1CCC(C)(O)C2C(O)CC(C)C2C1 [Compound 5, (1S,2S,4S,5S,7R,10R)-11(13)-en-2,10-dihydroxyguaiene] | – | > 50
– | 14.2 | C=C(CO)[C@@H]1CC[C@@](C)(O)[C@H]2[C@@H](C1)[C@@H](C)C[C@@H]2O [Compound 6, (1S,2S,4S,5S,7R,10R)-11(13)-en-2,10,12-trihydroxyguaiene] | – | > 50
– | 101 | CC(=O)OCC(C)(O)C1CCC(C)(O)C2C(O)CC(C)C2C1 [Compound 7, (1S,2S,4S,5S,7R,10R,11R)-12-acetyl-2,10,11-trihydroxyguaiane] | – | > 50
– | 166 | C[C@](O)(CO)[C@@H]1CC[C@@](C)(O)[C@@H]2CC[C@@](C)(O)[C@@H]2C1 [Compound 8, (1R,4R,5R,7R,10R)-4,10,11-trihydroxyguaiane] | – | > 50
– | 79.1 | C[C@H]1CC[C@@H]2[C@H]1C[C@H]([C@@H](C)C(=O)O)CC[C@@]2(C)O [Compound 9, (1R,4S,5S,7R,10R,11R)-10-hydroxyguai-12-oic acid] | – | > 50
– | 150 | C[C@H]1C[C@H](O)[C@@H]2[C@H]1C[C@H]([C@@](C)(O)CO)CC[C@@]2(C)O [Compound 10, (1S,2S,4S,5S,7R,10R)-guaiane-2,10,11,12-tetraol] | – | > 50
– | 141 | C[C@H]1CC[C@@H]2[C@H]1C[C@H]([C@](C)(O)CO)CC[C@@]2(C)O [Compound 11, (1R,4S,5S,7R,10R,11S)-guaiane-10,11,12-triol] | – | > 50
– | 122 | C[C@@H]1[C@@H]2C[C@H]([C@](C)(O)CO)CC[C@@](C)(O)[C@@H]2C[C@@H]1O [Compound 12, (1R,3S,4R,5S,7R,10R,11S)-guaiane-3,10,11,12-tetraol] | – | > 50
– | 88.2 | C[C@H]1CC[C@@H]2[C@H]1C[C@H]([C@@](C)(O)CO)C[C@@H](O)[C@@]2(C)O [Compound 13, (1R,4S,5S,7S,9R,10S,11R)-guaiane-9,10,11,12-tetraol] | – | > 50

Structure (SMILES) | IC50 ([2]; RAW 264.7 macrophages) [µM] | IC50 [2, 4] [µM] | CC50 [1] [µM] | CC50 [3] [µM]
N=C(N)NN [Aminoguanidine, aminoguanidine, reference compound] | 23.4 | – | > 50 | –
